Patent US20250144067A1, “PERSONALIZED STARVATION THERAPY FOR CANCER” (Faeth Therapeutics, Inc., priority 2021, published 2025)
Where a name gives a salt, the structure may show the parent alone.

How the values were obtained:
[1] = tested on: NCI-H292 lung cancer cells; test: FDA drug screening, complete media vs cholesterol-free media without statin (TABLE 1); type: cell-based, human; conditions: for Difference: about 0 neutral
[2] = tested on: NCI-H292 lung cancer cells; test: FDA drug screening, complete media vs cholesterol-free media with simvastatin (TABLE 2); type: cell-based, human; conditions: for Cholesterol-free media + simvastatin (0.04 μM) / Complete Media: NCI-H292 cells; for Difference: >0 enhanced anti-cancer activity, about 0 neutral, <0 antagonist
[3] = Complete minus Cholesterol-free, greater than 0 enhanced anti-cancer activity, below 0 antagonists
[4] = NCI-H292 cells in cholesterol-free media without statin
[5] = NCI-H292 cells in complete media
[6] = drug in cholesterol-free media with simvastatin 0.04 μM
[7] = complete media vs cholesterol-free media + simvastatin (0.04 μM)
[8] = Complete minus Cholesterol-free, greater than 0 enhanced anti-cancer activity, below 0 antagonist
[9] = NCI-H292 cells, FDA drug library screen, cholesterol-free media without statin
[10] = NCI-H292 cells, FDA drug library screen, complete media
[11] = FDA drug library screen, cholesterol-free media with simvastatin 0.04 μM
[12] = FDA drug library screen, complete media
[13] = complete media minus cholesterol-free media + simvastatin
[14] = NCI-H292 cells, cholesterol-free media without statin, FDA drug library screen
[15] = NCI-H292 cells, complete media, FDA drug library screen
[16] = complete vs cholesterol-free media, >0 enhanced anti-cancer activity, <0 antagonist
[17] = cholesterol-free media with simvastatin 0.04 μM, cell growth value in FDA drug screen
[18] = complete media, cell growth value in FDA drug screen
[19] = Complete minus Cholesterol-free, >0 enhanced anti-cancer activity, <0 antagonist
[20] = cholesterol-free media with simvastatin 0.04 μM, FDA drug library screen (TABLE 2)
[21] = complete media, FDA drug library screen (TABLE 2)
[22] = complete media minus cholesterol-free media + simvastatin (0.04 μM)
[23] = NCI-H292 cells, cholesterol-free media without statin

## O=C(O)[C@H](CC(=O)N1C[C@H]2CCCC[C@H]2C1)Cc1ccccc1 [Mitiglinide (Calcium)]
[1]; [3]
  Difference: −0.81
[1]; [4]
  Cholesterol-free: 1.668
[1]; [5]
  Complete: 0.8559
[2]; [6]
  Cholesterol-free media + simvastatin (0.04 μM): 1.855
[2]; drug in complete media
  Complete Media: 1.594
[2]; [7]
  Difference: −0.26

## [H]/N=C(/N)N/C(=N/[H])NCCc1ccccc1 [Phenformin (hydrochloride)]
[1]; [8]
  Difference: −0.12
[1]; [9]
  Cholesterol-free: 0.9657
[1]; [10]
  Complete: 0.8472
[2]; [11]
  Cholesterol-free media + simvastatin (0.04 μM): 1.171
[2]; [12]
  Complete Media: 1.373
[2]; [13]
  Difference: 0.20

## O=[N+]([O-])c1ccc(O)c2ncccc12 [Nitroxoline]
[1]; [14]
  Cholesterol-free: 0.8448
[1]; [15]
  Complete: 1.027
[1]; [16]
  Difference: 0.18
[2]; [11]
  Cholesterol-free media + simvastatin (0.04 μM): 1.871
[2]; [12]
  Complete Media: 1.743
[2]; [7]
  Difference: −0.13

## N[C@H]1CONC1=O [L-Cycloserine]
[1]; [3]
  Difference: −0.78
[1]; [4]
  Cholesterol-free: 1.458
[1]; [5]
  Complete: 0.6746
[2]; [17]
  Cholesterol-free media + simvastatin (0.04 μM): 0.815
[2]; [18]
  Complete Media: 0.9066
[2]; [13]
  Difference: 0.09

## Cc1oc(=O)oc1COC(=O)C1=C([C@H]2CCCO2)S[C@@H]2[C@@H]([C@@H](C)O)C(=O)N12 [Faropenem daloxate]
[1]; [3]
  Difference: −0.54
[1]; [4]
  Cholesterol-free: 1.449
[1]; [5]
  Complete: 0.9042
[2]; [11]
  Cholesterol-free media + simvastatin (0.04 μM): 1.071
[2]; [12]
  Complete Media: 0.9664
[2]; [7]
  Difference: −0.10

## COc1ccc(-n2nc(C(N)=O)c3c2C(=O)N(c2ccc(N4CCCCC4=O)cc2)CC3)cc1 [Apixaban]
[1]; [19]
  Difference: −0.06
[1]; [14]
  Cholesterol-free: 0.9998
[1]; [15]
  Complete: 0.9349
[2]; [11]
  Cholesterol-free media + simvastatin (0.04 μM): 0.9978
[2]; [12]
  Complete Media: 1.135
[2]; [13]
  Difference: 0.14

## CN(Cc1cc(Br)cc(Br)c1N)C1CCCCC1 [Bromhexine (hydrochloride)]
[1]; [8]
  Difference: −0.09
[1]; [9]
  Cholesterol-free: 1.344
[1]; [10]
  Complete: 1.254
[2]; FDA library drug in cholesterol-free media with simvastatin 0.04 μM
  Cholesterol-free media + simvastatin (0.04 μM): 1.081
[2]; FDA library drug in complete media
  Complete Media: 0.7932
[2]; [7]
  Difference: −0.29

## Cc1oncc1C(=O)Nc1ccc(C(F)(F)F)cc1 [Leflunomide]
[1]; [8]
  Difference: −0.16
[1]; [9]
  Cholesterol-free: 0.8738
[1]; [10]
  Complete: 0.714
[2]; [20]
  Cholesterol-free media + simvastatin (0.04 μM): 0.9978
[2]; [21]
  Complete Media: 0.949
[2]; [22]
  Difference: −0.05

## CCCCN1CCCC[C@H]1C(=O)Nc1c(C)cccc1C [Levobupivacaine (hydrochloride)]
[1]; [23]
  Cholesterol-free: 1.298
[1]; NCI-H292 cells, complete media
  Complete: 0.9683
[1]; complete vs cholesterol-free media, greater than 0 enhanced anti-cancer activity, below 0 antagonists
  Difference: −0.33
[2]; [17]
  Cholesterol-free media + simvastatin (0.04 μM): 0.871
[2]; [18]
  Complete Media: 0.9154
[2]; [13]
  Difference: 0.04

## CCOC(CN1CCN(CC(C)C(=O)c2ccccc2)CC1)c1ccccc1 (stereo not shown) [Eprazinone (dihydrochloride)]
[1]; [8]
  Difference: −0.09
[1]; [9]
  Cholesterol-free: 1.265
[2]; [20]
  Cholesterol-free media + simvastatin (0.04 μM): 0.9386
[2]; [21]
  Complete Media: 0.9227
[2]; [22]
  Difference: −0.02

## Doxylamine (succinate)
[1]; [19]
  Difference: −0.30
[1]; [23]
  Cholesterol-free: 1.101
[1]; NCI-H292 cells, complete media
  Complete: 0.8034
[2]; [17]
  Cholesterol-free media + simvastatin (0.04 μM): 1.024
[2]; [18]
  Complete Media: 1.092
[2]; [13]
  Difference: 0.07

## NC[C@H]1O[C@H](O[C@H]2[C@H](O)[C@@H](O[C@H]3O[C@H](CO)[C@@H](O)[C@H](N)[C@H]3O)[C@H](N)C[C@@H]2N)[C@H](N)[C@@H](O)[C@@H]1O [Bekanamycin]
[1]; [14]
  Cholesterol-free: 0.873
[1]; [15]
  Complete: 1.446
[1]; [16]
  Difference: 0.57
[2]; [6]
  Cholesterol-free media + simvastatin (0.04 μM): 1.456
[2]; drug in complete media
  Complete Media: 1.293
[2]; [7]
  Difference: −0.16

## C[C@]12C=CC(=O)C=C1CC[C@H]1[C@@H]3C[C@@H](O)[C@](O)(C(=O)CO)[C@@]3(C)C[C@H](O)[C@@]12F [Triamcinolone]
[1]; [19]
  Difference: −0.27
[1]; [23]
  Cholesterol-free: 0.8896
[1]; NCI-H292 cells, complete media
  Complete: 0.6155
[2]; [20]
  Cholesterol-free media + simvastatin (0.04 μM): 1.201
[2]; [22]
  Difference: −0.04

## O=C(CCCN1CCC(O)(c2ccc(Br)cc2)CC1)c1ccc(F)cc1 [Bromperidol]
[1]; [8]
  Difference: −0.13
[1]; [9]
  Cholesterol-free: 1.177
[1]; [10]
  Complete: 1.05
[2]; [11]
  Cholesterol-free media + simvastatin (0.04 μM): 0.4758
[2]; [12]
  Complete Media: 1.318
[2]; [13]
  Difference: 0.84
